# Molecular target: T1, ZAP-70 (Homo sapiens, UniProt P43403)
# T1 sequence (P43403 1-619): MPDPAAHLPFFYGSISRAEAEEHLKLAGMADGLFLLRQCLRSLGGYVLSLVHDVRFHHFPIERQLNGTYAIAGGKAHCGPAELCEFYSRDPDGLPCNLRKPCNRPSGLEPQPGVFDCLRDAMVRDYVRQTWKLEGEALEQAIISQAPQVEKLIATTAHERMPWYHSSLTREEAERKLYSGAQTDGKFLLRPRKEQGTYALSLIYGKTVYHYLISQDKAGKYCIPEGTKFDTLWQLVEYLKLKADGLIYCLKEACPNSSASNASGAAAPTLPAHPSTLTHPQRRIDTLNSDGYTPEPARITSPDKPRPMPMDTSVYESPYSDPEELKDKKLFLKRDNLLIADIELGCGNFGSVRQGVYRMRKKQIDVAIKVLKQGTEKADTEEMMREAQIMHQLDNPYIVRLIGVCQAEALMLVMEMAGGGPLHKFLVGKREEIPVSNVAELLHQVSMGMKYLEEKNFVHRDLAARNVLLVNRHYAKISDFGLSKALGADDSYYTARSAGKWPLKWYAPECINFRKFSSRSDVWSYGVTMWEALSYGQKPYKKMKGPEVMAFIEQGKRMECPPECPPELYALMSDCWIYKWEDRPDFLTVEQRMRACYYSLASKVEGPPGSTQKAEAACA
# Assay: DELFIA assay (ZAP-70 kinase, phosphorylation of biotinylated poly(glu,tyr))
# Assay type: biochemical
# Conditions: ZAP-70 DELFIA, class symbols; read-out: Activity (IC50 in vitro)
# Experimental: Before initiation of kinase reactions, compounds were pre-incubated with ZAP-70. Pre-incubation reactions contained 62.5 mM Mops pH 7.0, 12.5 mM MgCl2, 12.5% glycerol, 3.1 nM ZAP-70, 62.5 nM biotinylated poly(glu,Tyr), 0.1 mg/ml BSA, 6.25% DMSO and […] compound in a total volume of […]. After a 10 minute room temperature incubation, 10 ml of 5 mM ATP was added to start the reaction. Reactions were incubated at room temperature for 30 minutes then terminated by addition of 5 ml 500 mM EDTA. The amount of phosphate transferred to biotinylated poly(glu,tyr) was measured using the Dissociation Enhanced Lanthanide Fluorescence Immuno-assay (DELFIA) from Perkin Elmer according to manufacturers protocol. Briefly, biotinylated […] was captured on streptavidin coated plates, washed twice, then incubated with Europium labeled-anti-phosphotyrosine antibody. Free antibody was removed with six washes, Europium was dissociated from the antibody, and Europium fluorescence was measured at using an excitation wavelength of 340 nm and an emission wavelength of 615 nm.
row,IC50 [µM],SMILES
1,< 1,O=C(c1cc(Nc2ccccc2)nc2ccc(-c3ccc4c(c3)OCO4)cc12)N1CCC[C@H]1CN1CCCC1 [Compound 13]
2,> 10,O=C(c1cc(NCc2ccccc2)nc2ccccc12)N1CCC[C@H]1CN1CCCC1 [Compound 14]
3,< 1,COc1ccc(Nc2cc(C(=O)N3CCC[C@H]3CN3CCCC3)c3cc(-c4ccc5c(c4)OCO5)ccc3n2)cc1 [Compound 15]
4,< 1,O=C(c1cc(Nc2ccc(F)cc2)nc2ccc(-c3ccc4c(c3)OCO4)cc12)N1CCC[C@H]1CN1CCCC1 [Compound 16]
5,< 1,COc1cccc(Nc2cc(C(=O)N3CCC[C@H]3CN3CCCC3)c3cc(-c4ccc5c(c4)OCO5)ccc3n2)c1 [Compound 17]
6,< 1,O=C(c1cc(Nc2cccc(Br)c2)nc2ccc(-c3ccc4c(c3)OCO4)cc12)N1CCC[C@H]1CN1CCCC1 [Compound 18]
7,< 1,O=C(c1cc(Nc2ccccn2)nc2ccc(-c3ccc4c(c3)OCO4)cc12)N1CCC[C@H]1CN1CCCC1 [Compound 19]
8,> 10,CN(C)C[C@@H]1CCCN1C(=O)c1cc(N(C)C)nc2ccc(-c3ccc4c(c3)OCO4)cc12 [Compound 20]
9,> 10,O=C(c1cc(NCc2ccccc2)nc2ccc(-c3ccc4c(c3)OCO4)cc12)N1CCC[C@H]1CNCc1ccccc1 [Compound 21]
10,< 1,O=C(c1cc(Oc2ccccc2)nc2ccc(-c3ccc4c(c3)OCO4)cc12)N1CCC[C@H]1CN1CCCC1 [Compound 22]
11,< 1,O=C(c1cc(OCc2ccccc2)nc2ccc(-c3ccc4c(c3)OCO4)cc12)N1CCC[C@H]1CN1CCCC1 [Compound 23]
12,< 1,O=C(c1cc(NC2CCCCC2)nc2ccc(-c3ccc4c(c3)OCO4)cc12)N1CCC[C@H]1CN1CCCC1 [Compound 24]
13,< 1,O=C(c1cc(Cc2ccccc2)nc2ccc(-c3ccc4c(c3)OCO4)cc12)N1CCC[C@H]1CN1CCCC1 [Compound 25]
14,> 10,O=C(c1cc(NCCN2CCOCC2)nc2ccc(-c3ccc4c(c3)OCO4)cc12)N1CCC[C@H]1CN1CCCC1 [Compound 26]
15,< 1,O=C(c1cc(NCC2CCCCC2)nc2ccc(-c3ccc4c(c3)OCO4)cc12)N1CCC[C@H]1CN1CCCC1 [Compound 27]
16,> 10,O=C(c1cc(NC2CCCC2)nc2ccc(-c3ccc4c(c3)OCO4)cc12)N1CCC[C@H]1CN1CCCC1 [Compound 28]
17,1 to 10,O=C(c1cc(NC2Cc3ccccc3C2)nc2ccc(-c3ccc4c(c3)OCO4)cc12)N1CCC[C@H]1CN1CCCC1 [Compound 29]

# Second part, the compound before the results:
row,SMILES,IC50 [µM]
1,O=C(c1cc(Cl)nc2ccc(-c3ccc4c(c3)OCO4)cc12)N1CCC[C@H]1CN1CCCC1 [Compound 1],1 to 10
2,O=C(c1cc(NC2CC2)nc2ccc(-c3ccc4c(c3)OCO4)cc12)N1CCC[C@H]1CN1CCCC1 [Compound 2],1 to 10
3,O=C(c1cc(Cl)nc2ccccc12)N1CCC[C@H]1CN1CCCC1 [Compound 3],> 10
4,O=C(c1cc(NCc2ccccc2)nc2ccc(-c3ccc4c(c3)OCO4)cc12)N1CCC[C@H]1CN1CCCC1 [Compound 4],< 1
5,O=C(c1cc(N2CCOCC2)nc2ccc(-c3ccc4c(c3)OCO4)cc12)N1CCC[C@H]1CN1CCOCC1 [Compound 5],1 to 10
6,COc1cc(C(=O)N2CCC[C@H]2CN2CCCC2)cc(-c2ccc3c(c2)OCO3)n1 [Compound 6],> 10
7,COc1cc(C(=O)N2CCC[C@H]2CN2CCCC2)cc(NCc2ccccc2)n1 [Compound 7],> 10
8,O=C(c1cc(Nc2ccc3c(c2)OCO3)nc2ccccc12)N1CCC[C@H]1CN1CCCC1 [Compound 8],> 10
9,O=C(c1cc(NC2CC2)nc2ccccc12)N1CCC[C@H]1CN1CCCC1 [Compound 9],> 10
10,O=C(c1cc(Nc2ccc3cn[nH]c3c2)nc2ccccc12)N1CCC[C@H]1CN1CCCC1 [Compound 10],> 10
11,Nc1cc(C(=O)N2CCC[C@H]2CN2CCCC2)c2cc(-c3ccc4c(c3)OCO4)ccc2n1 [Compound 11],1 to 10
12,CN(Cc1ccccc1)c1cc(C(=O)N2CCC[C@H]2CN2CCCC2)c2cc(-c3ccc4c(c3)OCO4)ccc2n1 [Compound 12],< 1
